Measurements reported in patent publication US5279956A, “Activated protein C polypeptides and anti-peptide antibodies, diagnostic methods and systems for inhibiting activated protein C” (The Scripps Research Institute, priority 1991, dated 1994).
pIC50: −log10 of the molar value. No end group written: not given here.

Target: T1, APC (Homo sapiens, UniProt P04070)
T1 construct: begins at amino acid residue position 158 and ends at 419; The light chain is 155 amino acid residues in length; tissue Factor IX concentrate from Immuno AG, Vienna; thrombin from Enzyme Research Laboratories
T1 sequence (P04070 212-461): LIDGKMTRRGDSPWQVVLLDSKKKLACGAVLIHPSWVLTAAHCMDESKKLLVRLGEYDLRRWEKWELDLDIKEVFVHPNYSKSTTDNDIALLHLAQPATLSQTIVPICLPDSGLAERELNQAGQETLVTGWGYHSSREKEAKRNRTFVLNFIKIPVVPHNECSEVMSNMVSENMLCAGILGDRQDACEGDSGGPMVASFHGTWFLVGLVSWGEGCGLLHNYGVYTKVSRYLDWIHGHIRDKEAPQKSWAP
T1 sequence (P04070 43-197): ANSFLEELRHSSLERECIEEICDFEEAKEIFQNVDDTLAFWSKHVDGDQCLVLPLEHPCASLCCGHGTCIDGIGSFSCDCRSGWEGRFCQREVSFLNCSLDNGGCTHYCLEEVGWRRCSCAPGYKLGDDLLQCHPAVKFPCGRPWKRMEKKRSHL
Test: Xa-1-stage coagulation assay of APC anticoagulant activity
Assay type: biochemical
Description: For testing the inhibition of the synthetic peptides on APC activity described above, Xa-1-stage coagulation assays were also performed as described. See Seegers et al., Thrombosis Res., 13:233-243 (1978); Marlar et al., supra; and Walker et al., J. Biol. Chem. 265:1484-1489 (1990). […] The resulting admixtures were maintained for seven minutes at 37° C. Separate aliquots of peptides maintained under the same conditions in the absence of APC served as controls for the inhibitory effect of synthetic peptides on APC anticoagulant activity. After the maintenance period, 100 μl of NHP and 100 μl of 200 μg/ml of rabbit brain cephalin (Sigma) were admixed into each peptide admixture and maintained for 200 seconds at 37° C. to form pre-coagulation admixtures. In some experiments, Factor VIII deficient plasma (George King Bio-Medical, Inc.) was used in the place of NHP to determine the effect of Factor VIII on the assay system. Coagulation was then initiated by the admixture of 100 μl of 0.62 nM human activated Factor X (Xa) (Enzyme Research Laboratories, Southbend, Ind.) in TBS-BSA containing 30 mM CaCl2 prewarmed to 37° C. to each of the pre-coagulation admixtures.
The time for clot formation was measured by an Electra 700 Automatic Coagulation Timer (Medical Laboratory Automation, Inc., Mount Vernon, N.Y.). Each peptide's effect was determined in duplicate. The results of the inhibition of APC anticoagulant activity by synthetic peptides as measured in Xa-1-stage coagulation assays are described above and are presented as the mean values obtained with […].
Additional assays were performed to compare the specificity of the inhibitory effect of peptide-(390-404) on APC anticoagulant activity. Both APTT and Xa-1-stage assays were performed with peptide-(390-404) and with the same peptide synthesized in the reverse order, peptide-(404-390), at concentrations of the peptides ranging from 0 μM to 40 μM. In APTT assays performed as described above in the presence of NHP, APC was used at a concentration of 2.5 nM. […]

| Substance | effect on APC in Xa1-stage assay (up to 100 μM) | pIC50 | IC90 [µM] |
| --- | --- | --- | --- |
| KRNRTFVLNFIKIPV-NH2 [peptide-(311-325), KRNRTFVLNFIKIPV] | no effect | – | – |
| YGVYTKVSRYLDWIH-NH2 [peptide-(390-404), YGVYTKVSRYLDWIH] | – | 5.30 | 40 |
